Key:
Assay type in all cases: cell-based, human
[1] = tested on: hiPSC chondrogenic pellets; test: Biochemical analysis of cartilaginous matrix production (GAG/DNA) in hiPSC chondrogenic pellets; conditions: 1 μM inhibitor + TGF-β3 during pellet culture, d28/d42, vs TGF-β3 or other regimens
Protocol: (§1) Chondrogenic differentiation. Cells dissociated at the Cp stage were resuspended at 5×10^5 cells per mL in chondrogenic medium consisting of DMEM/F-12, 1% FBS, 1% ITS+, 55 μM β-mertcaptoethanol, 100 nM dexamethasone (DEX; Sigma-Aldrich, #D4902), 1% NEAA (Gibco, #11140050), 1% P/S, 10 ng ml^−1 human transforming growth factor-beta 3 (TGF-β3; R&D Systems, #243-B3-010), 50 μg ml^−1 L-ascorbic acid 2-phosphate (ascorbate; Sigma-Aldrich, #A8960), and 40 μg ml^−1 L-Proline (proline; Sigma-Aldrich, #P5607). Cells were then centrifuged for 5 min at 300×g to form a pellet. Chondrogenic pellets were cultured at 37° C. for up to the timepoints required for various experiments.
(§2) WNT-C59 and ML329 treatment for WNT and MITF inhibition. For WNT-C59 treatment for WNT inhibition during chondrogenesis, pellets were treated with either 10 ng ml^−1 TGF-β3 (control group) or a combination of 10 ng ml^−1 TGF-β3 and 1 μM WNT-C59 in a chondrogenic medium from d0 to d42 as appropriate. […]
(§3) Biochemical analysis of cartilaginous matrix production. […] GAG content, as calculated based on the standard curve, was normalized to double-stranded DNA content to obtain the GAG/DNA ratio.

[2] = tested on: hiPSC chondrogenic pellets; test: Safranin-O histology of hiPSC chondrogenic pellets
Protocol: as §1
WNT-C59 and ML329 treatment for WNT and MITF inhibition. For WNT-C59 treatment for WNT inhibition during chondrogenesis, pellets were treated with either 10 ng ml^−1 TGF-β3 (control group) or a combination of 10 ng ml^−1 TGF-β3 and 1 μM WNT-C59 in a chondrogenic medium from d0 to d42 as appropriate. For WNT-C59 and ML329 treatment (ML, Axon Medchem, HY-101464) for WNT and MITF inhibition during chondrogenesis, pellets were treated with either 10 ng ml^−1 TGF-β3 (control group), a combination of 10 ng ml^−1 TGF-β3 and 1 μM ML, a combination of 10 ng ml^−1 TGF-β3 and 1 μM WNT-C59, or a combination of 10 ng ml^−1 TGF-β3, 1 μM ML and 1 μM WNT-C59 in chondrogenic medium from d0 to d42 as appropriate. […]

[3] = tested on: CD146/CD166+ cells at the Cp stage; test: FACS for progenitors at the Cp stage; conditions: with BMP4, 1 μM WNT-C59 or 100 ng/ml WNT3A
Protocol: WNT ligands treatment during chondrogenesis. For WNT ligands treatment during chondrogenesis, pellets were treated with either 10 ng ml^−1 TGF-β3 (control group) or a combination of 10 ng ml^−1 TGF-β3 and 100 ng ml^−1 individual WNT ligand (WNT2B, WNT3A, WNT4, WNT5B, or WNT7B, all from R&D system) in chondrogenic medium from d0 to d42 as appropriate. For WNT ligands treatment during the Cp stage, cells were supplemented with either 20 ng ml^−1 BMP4 (R&D Systems, #314-BP-010) alone (control group), a combination of 20 ng ml^−1 BMP4 and 1 μM WNT-059, or a combination of 20 ng ml^−1 BMP4 and 100 ng ml^−1 WNT3A (R&D Systems, #5036-WN-010) in mesodermal differentiation medium from d7 to d12.
FACS for progenitors. […] Data were analyzed using FlowJo software (version 10.5.3).

[4] = tested on: hMSC pellets; test: Chondrogenesis of hMSC pellets with WNT inhibition (Saf-O, GAG/DNA)
Text: hMSCs and culture. Discarded and deidentified waste tissue from the iliac crests of adult bone marrow transplant donors was collected in accordance with the institutional review board of Washington University in Saint Louis. Human bone marrow-derived MSCs (hMSCs) were isolated by their physical adherence to plastic culture vessels. Cells were expanded and maintained in an expansion medium consisting of DMEM-low glucose (Thermo Fisher Scientific, #11885092), 1 penicillin/streptomycin (P/S, Thermo Fisher Scientific, #15140-122), 10% lot-selected FBS (Atlanta Biologicals, #S11550), and 1 ng ml^−1 basic fibroblast growth factor (FGF) (R&D Systems, #233-FB). Three individual donors were used as biologic replicates in subsequent experiments.
as §2, §3

SMILES: Cc1cc(-c2ccc(CC(=O)Nc3ccc(-c4cccnc4)cc3)cc2)ccn1 [WNT-C59]
- GAG/DNA ratio [1]: significantly increased
- chondrogenesis when WNTs inhibited at the Cp stage ([2]; WNT-C59 at Cp stage): severely impaired
- chondrocyte homogeneity (Saf-O staining) ([2]; treatment during pellet culture, vs standard TGF-β3): increased
- percentage of CD146/CD166+ cells [3]: largely decreased
- GAG/DNA ratio of hMSC pellets ([4]; donor 1 and donor 3, vs TGF-β3 alone): significantly increased
- chondrogenesis of hMSC pellets ([4]; hMSCs from 3 donors, WNT-C59 during pellet culture): increased
